# Experimental data published in paper PMC7367283, “A PIP2 substitute mediates voltage sensor-pore coupling in KCNQ activation” (Communications Biology, 2020).
# Values joined by “and” are separate entries in the source; they are usually repeats but may differ in a detail not shown here. Equal values may be shown once.
# Molecular target: IKs (KCNQ1 + KCNE1) (Homo sapiens, UniProt P51787)
# Assay: Two-electrode voltage clamp of IKs channels expressed in Xenopus oocytes
# Assay type: cell-based
# Design: key to G/Gcontrol(max): conductance / max control conductance (control max = 1)
# Settings: for Current: Fig. 4g; for ∆V1/2 of activation induced by CP1 (mean): Fig. 4i dose response; for G/Gcontrol(max): Fig. 4h
# Source text: Our previous studies have shown that the VSD of KCNQ1 activates to an intermediate state (I state) and an activated state (A state) upon membrane depolarization, and the pore can open when VSD is at either the intermediate (IO state) or activated (AO state)[23],[24]. The association of the auxiliary subunit KCNE1 with KCNQ1 affects VSD-pore coupling to suppress the IO state and enhance the AO state. Correspondingly, the association of KCNE1 also increases the PIP2 sensitivity of the channel[24],[37]. […] The most prominent effect of CP1 is to dramatically slow the deactivation of IKs, such that at 2 µM CP1, it took a 100-s interval at −120 mV for all the channels to deactivate from their previous activation (Fig. 4a). The application of 2 µM CP1 shifted the G–V relation to more negative voltages by ~13 mV (Fig. 4b). […] A fraction of the constitutively open channels might have been open during the previous test pulses and not deactivated during the shorter and less-hyperpolarized interval pulse to cause a current accumulation. […] In higher concentrations of CP1, we were not able to suppress the constitutive opening of KCNQ1 channels even with long and negative interval voltages, so that we used 20-s and −80-mV interval pulses in the recordings (Fig. 4e). […] In comparison with KCNQ1 expressed alone, CP1 caused a larger shift of the G–V relationship when KCNE1 was co-expressed (Fig. 4i). Since the IKs currents were difficult to measure accurately at high CP1 concentrations, we were unable to determine the EC50 of the channel response to CP1.
# Fig. 4 Effects of CP1 on IKs channels. a, b IKs currents in the absence (left) and presence of 2 µM CP1 (right) recorded with 100-s and −120-mV interval pulses between testing voltages. Holding potential: −80 mV; testing potential: −120 to +80 mV; returning potential: −40 mV (a). G–V relations (b). c, d IKs recorded at the same conditions as in (a), except for the interval pulses, was 20 s at −80 mV. e, f IKs in the absence or presence of 10 µM CP1. The voltage protocol was the same as in (b). g, h Current (g) and relative conductance (h) increases of IKs channels by 10 µM CP1. In h, the measured conductance in CP1 at all voltages was divided by the maximum measured conductance in control, and then normalized with the maximum measured conductance in control being 1. i Dose response for ΔV1/2 of G–V relations to different CP1 concentrations as compared with those of KCNQ1 (dashed line).
# The use of Xenopus laevis to obtain oocytes was approved by the Washington University Animal Studies Committee (protocol #20190030). Oocytes were manually dispersed and digested with collagenase (0.5 mg/ml, Sigma-Aldrich, Saint Louis, MO) to remove the follicle cell layer. Stage V or VI oocytes were selected and injected with cRNAs (9.2 ng) of channel or mutations. Especially, to characterize IKs, a mix of cRNAs at a molar ratio 4:1 (KCNQ1:KCNE1) was injected. For KCNQ2/KCNQ3, the molar ratio was 1:1 (KCNQ2:KCNQ3). For sodium channels, a 3:1 molar ratio (β1:NaV1.5) and for calcium channels a weight ratio 1:1:1 (β1:α2/δ1:CaV1.2) was injected, respectively. Injected oocytes were incubated in ND96 solution containing (in mM) 96 NaCl, 2 KCl, 1.8 CaCl2, 1 MgCl2, and 5 HEPES, pH 7.6, supplemented with 2.5 mM Na pyruvate and 1% penicillin–streptomycin, at 18 °C for 3–7 days before recording.
# The whole-oocyte ionic currents were recorded with a GeneClamp 500B amplifier (Axon Instruments, CA) or iTEV90 amplifier (HEKA, Germany) and then sampled at 1 kHz and low-pass-filtered at 2 kHz. The Patchmaster software (HEKA, Germany) was used to acquire data. The Kir1.1 current was recorded with a high K^+ bath solution containing (in mM) 96 KCl, 4 NaCl, 1 CaCl2, 2 MgCl2, and 10 HEPES, pH 7.3–7.4. The HCN4 current was recorded in ND66 solution containing (in mM) 66 NaCl, 32 KCl, 1.8 CaCl2, 1 MgCl2, and 5 HEPES, pH 7.6. All the other potassium channels were recorded in ND96 solution. […]
smiles,measurement,setting,value
"O=S(=O)([O-])Oc1c(-c2sc3c(ccc4cccc(Cl)c43)c2OS(=O)(=O)[O-])[nH]c2ccc(Br)cc12.[Na+].[Na+] [CP1, DISODIUM 5-BROMO-2-[9-CHLORO-3-(SULFONATOOXY) NAPHTHO [1,2-B] THIEN-2-YL]-1H-INDOL-3-YL SULFATE]",shift of G–V relation,"2 µM CP1, 20-s and −80-mV interval pulses",~ 12 mV
same,shift of G–V relation to more negative voltages,"2 µM CP1, 100-s and −120-mV interval pulses",~ 13 mV
same,outward current (Icp1/Ictrl),"10 µM CP1, Q1/E1, at +40 mV, individual oocytes",3.3641 and 3.7408 and 2.3715 and 2.9989 and 4.6393
same,∆V1/2,"10 µM CP1, Q1/E1, individual oocytes",64.6738 mV and 84.3167 mV and 109.16 mV and 34.9084 mV and 123.145 mV
same,τ deact at -120 mV,"10 µM CP1 treated, Q1/E1, individual oocytes",3.5736 s and 3.9322 s and 2.999 s and 3.0124 s and 2.7649 s and 3.45 s and 3.7957 s
same,G/Gmax Mean,"Fig. 4b, 2 µM CP1, 0 mV",0.3833
same,G/Gmax Mean,"Fig. 4b, 2 µM CP1, 20 mV",0.7035
same,G/Gmax Mean,"Fig. 4b, 2 µM CP1, 40 mV",0.9619
same,G/Gmax Mean,"Fig. 4b, 2 µM CP1, 60 mV",1.0000
same,G/Gmax Mean,"Fig. 4b, 2 µM CP1, -20 mV",0.1567
same,G/Gmax Mean,"Fig. 4b, 2 µM CP1, -40 mV",0.0500
same,G/Gmax Mean,"Fig. 4b, 2 µM CP1, -60 mV",0.0188
same,G/Gmax Mean,"Fig. 4b, 2 µM CP1, -80 mV",0.0090
same,G/Gmax Mean,"Fig. 4b, 2 µM CP1, -100 mV",0.0050
same,G/Gmax Mean,"Fig. 4b, 2 µM CP1, -120 mV",0.0140
same,G/Gmax Mean,"Fig. 4f, 10 µM CP1, 0 mV",0.9498
same,G/Gmax Mean,"Fig. 4f, 10 µM CP1, 10 mV",0.9622
same,G/Gmax Mean,"Fig. 4f, 10 µM CP1, 20 mV",0.9768
same,G/Gmax Mean,"Fig. 4f, 10 µM CP1, 30 mV",0.9888
same,G/Gmax Mean,"Fig. 4f, 10 µM CP1, 40 mV",0.9959
same,G/Gmax Mean,"Fig. 4f, 10 µM CP1, 50 mV",1.0000
same,G/Gmax Mean,"Fig. 4f, 10 µM CP1, 60 mV",0.9995
same,G/Gmax Mean,"Fig. 4f, 10 µM CP1, 70 mV",0.9975
same,G/Gmax Mean,"Fig. 4f, 10 µM CP1, 80 mV",0.9882
same,G/Gmax Mean,"Fig. 4f, 10 µM CP1, -10 mV",0.9293
same,G/Gmax Mean,"Fig. 4f, 10 µM CP1, -20 mV",0.9108
same,G/Gmax Mean,"Fig. 4f, 10 µM CP1, -30 mV",0.8947
same,G/Gmax Mean,"Fig. 4f, 10 µM CP1, -40 mV",0.8796
same,G/Gmax Mean,"Fig. 4f, 10 µM CP1, -50 mV",0.8652
same,G/Gmax Mean,"Fig. 4f, 10 µM CP1, -60 mV",0.8490
same,G/Gmax Mean,"Fig. 4f, 10 µM CP1, -70 mV",0.8309
same,G/Gmax Mean,"Fig. 4f, 10 µM CP1, -80 mV",0.8109
same,G/Gmax Mean,"Fig. 4f, 10 µM CP1, -90 mV",0.7850
same,G/Gmax Mean,"Fig. 4f, 10 µM CP1, -100 mV",0.7801
same,G/Gmax Mean,"Fig. 4f, 10 µM CP1, -110 mV",0.7703
same,G/Gmax Mean,"Fig. 4f, 10 µM CP1, -120 mV",0.7614
same,Current,"10 µM CP1, 0 mV",11.3690 µA
same,Current,"10 µM CP1, 10 mV",13.1145 µA
same,Current,"10 µM CP1, 20 mV",14.8276 µA
same,Current,"10 µM CP1, 30 mV",16.4399 µA
same,Current,"10 µM CP1, 40 mV",17.8196 µA
same,Current,"10 µM CP1, 50 mV",18.8339 µA
same,Current,"10 µM CP1, 60 mV",19.4658 µA
same,Current,"10 µM CP1, 70 mV",19.7856 µA
same,Current,"10 µM CP1, 80 mV",19.9691 µA
same,Current,"10 µM CP1, -10 mV",9.6451 µA
same,Current,"10 µM CP1, -20 mV",8.0042 µA
same,Current,"10 µM CP1, -30 mV",6.4510 µA
same,Current,"10 µM CP1, -40 mV",5.0169 µA
same,Current,"10 µM CP1, -50 mV",3.6974 µA
same,Current,"10 µM CP1, -60 mV",2.5078 µA
same,Current,"10 µM CP1, -70 mV",1.4333 µA
same,Current,"10 µM CP1, -80 mV",0.5290 µA
same,Current,"10 µM CP1, -90 mV",-0.3014 µA
same,Current,"10 µM CP1, -100 mV",-0.9865 µA
same,Current,"10 µM CP1, -110 mV",-1.5545 µA
same,Current,"10 µM CP1, -120 mV",-2.0910 µA
same,∆V1/2 of activation induced by CP1 (mean),[CP1] 1 µM,14.4504 mV
same,∆V1/2 of activation induced by CP1 (mean),[CP1] 2 µM,15.8525 mV
same,∆V1/2 of activation induced by CP1 (mean),[CP1] 3 µM,21.4391 mV
same,∆V1/2 of activation induced by CP1 (mean),[CP1] 5 µM,41.6182 mV
same,∆V1/2 of activation induced by CP1 (mean),[CP1] 6 µM,46.8783 mV
same,∆V1/2 of activation induced by CP1 (mean),[CP1] 10 µM,97.2701 mV
same,∆V1/2 of activation induced by CP1 (mean),[CP1] 15 µM,120.8217 mV
same,∆V1/2 of activation induced by CP1 (mean),[CP1] 20 µM,143.8484 mV
same,∆V1/2 of activation induced by CP1 (mean),[CP1] 25 µM,174.0381 mV
same,G/Gcontrol(max),"10 µM CP1, 0 mV",2.2457
same,G/Gcontrol(max),"10 µM CP1, 10 mV",2.2822
same,G/Gcontrol(max),"10 µM CP1, 20 mV",2.3257
same,G/Gcontrol(max),"10 µM CP1, 30 mV",2.3635
same,G/Gcontrol(max),"10 µM CP1, 40 mV",2.3895
same,G/Gcontrol(max),"10 µM CP1, 50 mV",2.4063
same,G/Gcontrol(max),"10 µM CP1, 60 mV",2.4120
same,G/Gcontrol(max),"10 µM CP1, 70 mV",2.4121
same,G/Gcontrol(max),"10 µM CP1, 80 mV",2.3902
same,G/Gcontrol(max),"10 µM CP1, -10 mV",2.1869
same,G/Gcontrol(max),"10 µM CP1, -20 mV",2.1346
same,G/Gcontrol(max),"10 µM CP1, -30 mV",2.0892
same,G/Gcontrol(max),"10 µM CP1, -40 mV",2.0471
same,G/Gcontrol(max),"10 µM CP1, -50 mV",2.0074
same,G/Gcontrol(max),"10 µM CP1, -60 mV",1.9645
same,G/Gcontrol(max),"10 µM CP1, -70 mV",1.9185
same,G/Gcontrol(max),"10 µM CP1, -80 mV",1.8692
same,G/Gcontrol(max),"10 µM CP1, -90 mV",1.8061
same,G/Gcontrol(max),"10 µM CP1, -100 mV",1.7954
same,G/Gcontrol(max),"10 µM CP1, -110 mV",1.7738
same,G/Gcontrol(max),"10 µM CP1, -120 mV",1.7540
same,G/Gmax Mean,"Fig. 4d, 2 µM CP1, 0 mV",0.2264
same,G/Gmax Mean,"Fig. 4d, 2 µM CP1, 20 mV",0.4604
same,G/Gmax Mean,"Fig. 4d, 2 µM CP1, 40 mV",0.7375
same,G/Gmax Mean,"Fig. 4d, 2 µM CP1, 60 mV",0.9406
same,G/Gmax Mean,"Fig. 4d, 2 µM CP1, 80 mV",1.0000
same,G/Gmax Mean,"Fig. 4d, 2 µM CP1, -20 mV",0.0874
same,G/Gmax Mean,"Fig. 4d, 2 µM CP1, -40 mV",0.0291
same,G/Gmax Mean,"Fig. 4d, 2 µM CP1, -60 mV",0.0147
same,G/Gmax Mean,"Fig. 4d, 2 µM CP1, -80 mV",0.0247
same,G/Gmax Mean,"Fig. 4d, 2 µM CP1, -100 mV",0.0692
